# Source: patent US20160213742A1, “COMPOSITIONS AND METHODS FOR THE TREATMENT OF FUNGAL INFECTIONS” (priority 2013, published 2016)
# Assays:
# Assay type in all cases: cell-based
# [1] = test system: C. albicans ATCC 90028; assay: microbe, parasite or virus in culture
# How it was run: (§1)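 Broth microdilution in CLSI-prepared RPMI, pH 7.0, with serial 2-fold drug dilutions; final DMSO 1.25% for investigational agents. Candida inoculum from 0.5 McFarland diluted 1:100; Aspergillus at ~0.2-2.5×10^4 CFU/mL. Incubated 35° C. ~24-48 hr; MIC at visible growth inhibition, MEC at compact rounded hyphal form.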
# [2] = test system: C. glabrata ATCC 90030; assay: microbe, parasite or virus in culture
# How it was run: as §1
# [3] = test system: C. krusei ATCC 14243; assay: microbe, parasite or virus in culture
# How it was run: as §1
# [4] = test system: human neutrophils; assay: Microfluidic Neutrophil Chemotaxis assay; conditions: for neutrophil (NF) migration counts (FIG. 1): 4 hour timepoint, in the presence of Aspergillus fumigatus, Compound 1, Compound 11, caspofungin acetate 10 nM, fMLP 100 nM, relative to A. fumigatus alone
# Source text: Two layers of photoresist (SU8; […] The wafer with patterned photoresist was used as a mold to produce polydimethylsiloxane (PDMS) (Fisher Scientific) devices, which were then bonded to the base of glass-bottom 12- or 24-well plates, using an oxygen plasma machine (Nordson-March). De-identified, fresh human blood samples from healthy volunteers, aged 18 years and older, who were not receiving immunosuppressants, were purchased from Research Blood Components, LLC. Peripheral blood was drawn in tubes containing a final concentration of 5 mM EDTA (Vacutainer; Becton Dickinson) and processed within 2 h of blood collection. Using a sterile technique, neutrophils were isolated from whole blood using HetaSep followed by the EasySep Human Neutrophil Enrichment Kit (STEMCELL Technologies) following the manufacturer's protocol. The purity of neutrophils was assessed to be >98% using the Sysmex KX-21N Hematology Analyzer (Sysmex America, Inc.). White blood cells were isolated using Hetasep followed by a 5 min spin down and wash with 1×PBS. White blood cells were stained with Hoechst (32.4 μM) (Sigma) following the manufacture's protocols. The final aliquots of white blood cells were resuspended in RPMI plus 10% fetal bovine serum (FBS−stock 50 mL FBS/450 mL RPMI) (Sigma-Aldrich) at a concentration of 20,000 cells/2 μL and kept at 37° C. Cells were then immediately introduced into the microfluidic device for the chemotaxis and Aspergillus fumigatus killing assay. All experiments were repeated at least three times with neutrophils or white blood cells from three different healthy donors. Immediately after bonding to the well plate, donut-shaped devices were filled with Aspergillus fumigatus conidia at a concentration of 10^6 cells/mL with or without either Compound 1 or Compound 11 [10 nM], caspofungin acetate [10 nM] and/or a solution of the chemoattractant N-formyl-methionyl-leucyl-phenylalanine (fMLP) [100 nM](Sigma-Aldrich, St. Louis, Mo.). The device was then placed in a vacuum for 15 min. The solution filled all of the FCCs as the air was displaced. The devices were then vigorously washed five times with 1×PBS to remove any residual Aspergillus fumigatus conidia, drug or chemoattractant that was outside of the FCCs. The device was then submerged in 0.5 mL of cell media. Neutrophils or white blood cells (20,000 cells/2 μL) were then pipetted into the cell loading chamber (CLC) using a gel-loading pipette tip. […] Image analysis of cell migration counts and fungi growth was analyzed by hand using Image J software. Neutrophil counts per chamber were counted every 15 min for the first 2 hours of the experiment and then every hour for the remaining 16 hours. Percentage of conidia that converted to hyphal growth was measured by counting conidia loaded per chamber before neutrophils or WBCs were loaded into the chamber and counting numbers of these conidia that grew hyphae by 18 hours. Fungal growth velocity was calculated using Image J. The 16 chambers in each device (n=3) were analyzed for at least three different healthy donors.
Compound,"MIC ([1]; ATCC 90028, pH 7)","MIC ([2]; ATCC 90030, pH 7)","MIC ([3]; ATCC 14243, pH 7)",neutrophil (NF) migration counts (FIG. 1) [4],"timecourse of neutrophil (PMNs) migration in FCCs (FIG. 4) ([4]; with A. fumigatus, three healthy blood donors, t=0, 8, and 16 hours)","MIC ([1]; C. albicans ATCC 90028, RPMI pH 7.0, 35° C., 24-48 hr)","MIC ([2]; C. glabrata ATCC 90030, RPMI pH 7.0, 35° C., 24-48 hr)","MIC ([3]; C. krusei ATCC 14243, RPMI pH 7.0, 35° C., 24-48 hr)"
CC[C@H](C)C[C@H](C)CCCCCCCCC(=O)N[C@H]1C[C@@H](O)[C@@H](NCCN)NC(=O)[C@@H]2[C@@H](O)CCN2C(=O)[C@H]([C@H](O)CCNC(=O)[C@H](Cc2ccccc2)NC(=O)[C@H](CC(C)C)NC(=O)[C@H](CCSC)NC=O)NC(=O)[C@H]([C@H](O)[C@@H](O)c2ccc(O)cc2)NC(=O)[C@@H]2C[C@@H](O)CN2C(=O)[C@H]([C@@H](C)O)NC1=O [Compound 1],2 µg/mL,4 µg/mL,8 µg/mL,increased NF migration,–,–,–,–
CC[C@H](C)C[C@H](C)CCCCCCCCC(=O)N[C@H]1C[C@@H](O)[C@@H](OCCN)NC(=O)[C@@H]2[C@@H](O)CCN2C(=O)[C@H]([C@H](O)CCNC(=O)[C@H](Cc2ccccc2)NC(=O)[C@H](CC(C)C)NC(=O)[C@H](CCSC)NC=O)NC(=O)[C@H]([C@H](O)[C@@H](O)c2ccc(O)cc2)NC(=O)[C@@H]2C[C@@H](O)CN2C(=O)[C@H]([C@@H](C)O)NC1=O [Compound 11],2 µg/mL,8 µg/mL,16 µg/mL,increased NF migration,migration of PMNs,–,–,–
caspofungin acetate [reference compound],–,–,–,did not give increased NF migration,–,0.03 to 0.12 µg/mL,0.06 to 0.25 µg/mL,0.5 to 1 µg/mL
